Key:
[1] = tested on: Klebsiella pneumoniae (ATCC BAA-2146 NDM-I positive); test: Inactivation of K. pneumoniae by 300 ns electric pulses and/or antibiotics (CFU plating); assay type: cell-based
Excerpt: (§1) Except for rifampicin, the five other antibiotics in these examples primarily target gram-positive bacteria and are largely ineffective or not used against gram-negative bacteria in a clinical setting.
(§2) A Blumlein pulsed generator consisting of two lines comprised of twelve 2000 pF capacitors connected by inductors produced 300 ns EPs with rise-times of 30 ns and fall-times of 35 ns at a repetition frequency of 1 Hz (12). The EPs were applied to a standard 2 mm gap electroporation cuvette (Dot Scientific R) filled with a solution containing the microorganisms. Used was a Luria broth of 0.5% salinity (5 grams of NaCl/Liter) for the solution to electrically match the resistance of the sample with the impedance of the pulse generator (11Ω) to prevent signal reflection. The voltage measurements were taken using a LeCroy PPE 20 kV high voltage probe with a 1000:1 attenuation recorded by a TeleDyne LeCroy® Waverunner 6 Zi Oscilloscope with a bandwidth of 4 GHZ.
(§3) The gram-negative strains included a carbapenem-resistant Escherichia coli (ATCC® BA-2452TM, New Delhi metallo-beta-lactamase NDM-1 positive.), Klebsiella pneumoniae (ATCC® BAA-2146TM NDM-I positive), and a gentamicin, streptomycin and sulfonamide resistant Pseudomonas aeruginosa (BEI Resources NR-31040). Assessed was the gram-positive strain of methicillin resistant Staphylococcus aureus (USA300-0114 strain), which is also resistant to erythromycin and tetracycline. Samples were cultured in Luria broth (LB Broth Lennox, powder microbial growth medium, SIGMA-ALDRICH®) by taking 25 mL of broth in a 50 mL sterile conical tube and incubating in a shaker for 16 h at 37° C. Samples were diluted 50% by adding 25 mL media to the incubated sample as we plated controls for each experiment and condition.
(§4) Samples were treated in 2 mm gap cuvettes containing 365 μL of sample between the electrodes, with bio-grade mineral oil added on top of the electrode plates to prevent arcing.
(§5) To establish a common baseline for comparing different NSEP parameters, we fixed the energy density U delivered to the cuvettes according to Formula (1) (above). For 300 ns EPs, 500 EPs at 20 kV/cm and 222 EPs at 30 kV/cm delivered the same energy to the sample.
(§6) Tissue culture Petri dishes from VWR R (15 cm diameter, 10 mm height) were utilized for plating. Each plate was covered with 15 mL of Luria broth (Agar, microbiology tested powder, SIGMA-ALDRICH®), which was prepared by adding 20 g of LB Lennox (SIGMA-ALDRICH) and 15 g/L of agar to water prior to being autoclaved. The salinity of the agar was the same as the LB (0.5% NaCl) to minimize additional environmental stressors on the bacteria.
(§7) Removed was 20 μL from each cuvette and added to 180 μL of PBS in a 96-well dish in triplicate. Each well was then diluted by a ratio of 10:1 five additional times by taking 20 μL of the diluted sample into subsequent wells using multi-channel pipettes (using fresh tips for each dilution). Plated were the six dilutions of each sample two times each by adding 4 μL from each well onto the Petri dish using a multi-channel pipette, which allowed the plating of all three replicates on the same plate to achieve n=6. These plates were then cultured overnight in an incubator at 37° C., and counted the next day.

[2] = tested on: Stapphylococcus aureus (gram positive bacterium number 25923); test: Inactivation of S. aureus by 300 ns electric pulses combined with antibiotic (CFU plating); assay type: cell-based, Staphylococcus aureus; conditions: 30 kV/cm treatment + 20 μg/ml dose, in 10 min
[3] = tested on: methicillin resistant Staphylococcus aureus (USA300-0114 strain); test: Inactivation of MRSA by 300 ns electric pulses and/or antibiotics (CFU plating); assay type: cell-based; conditions: 20 μg/mL + 30 kV/cm EPs
Excerpt: as §1, §2
as §3, with “condition. […]” for “condition.”
Removed was 20 μL from each cuvette and added to 180 μL of PBS in a 96-well dish in triplicate. […] These plates were then cultured overnight in an incubator at 37° C., and counted the next day.

[4] = tested on: gentamicin, streptomycin and sulfonamide resistant Pseudomonas aeruginosa (BEI Resources NR-31040); test: Inactivation of P. aeruginosa by 300 ns electric pulses and/or antibiotics (CFU plating); assay type: cell-based; conditions: 20 kV/cm EPs + 20 μg/mL
Excerpt: as §1, §2, §3, §4, §5, §6, §7

CO[C@H]1/C=C/O[C@@]2(C)Oc3c(C)c(O)c4c(O)c(c(/C=N/N5CCN(C)CC5)c(O)c4c3C2=O)NC(=O)/C(C)=C\C=C\[C@H](C)[C@H](O)[C@@H](C)[C@@H](O)[C@@H](C)[C@H](OC(C)=O)[C@@H]1C [rifampicin]
additional inactivation compared to NSEPs alone, K. pneumoniae ([1]; 30 kV/cm NSEPs + 2 μg/mL): 1 log
log reduction of K. pneumoniae ([1]; 30 kV/cm NSEPs + 2 μg/mL): 5 log
additional inactivation compared to NSEPs alone, K. pneumoniae ([1]; 30 kV/cm NSEPs + 20 μg/mL): 1 log
additional log-reduction of S. aureus [2]: 1.5 log
synergy (synergistic inactivation), MRSA [3]: approximately 1.5 log
synergy (FIG. 11B legend) [4]: approximately 2 log

Source: US20250195660A1, “INACTIVATING BACTERIA WITH ELECTRIC PULSES AND ANTIBIOTICS” (Purdue Research Foundation, priority 2018, published 2025)
